According to US20250388605A1, “HETEROBIFUNCTIONAL COMPOUNDS AND METHODS OF TREATING DISEASE” (Halda Therapeutics OpCo, Inc., priority 2022, published 2025):
pKi: −log10 of the molar value.

Columns and labels:
[1] = molecular target: T1, androgen receptor (Homo sapiens, UniProt P10275); assay: Assay for binding affinity to androgen receptor ([3H]methyltrienolone radioligand competition, cell cytosol); details: binding to the androgen receptor, 1 nM [3H]methyltrienolone, 24 hr at 4° C.
T1 construct: host or cells: unnamed cells, cytosolic fraction
T1 sequence (P10275 1-920): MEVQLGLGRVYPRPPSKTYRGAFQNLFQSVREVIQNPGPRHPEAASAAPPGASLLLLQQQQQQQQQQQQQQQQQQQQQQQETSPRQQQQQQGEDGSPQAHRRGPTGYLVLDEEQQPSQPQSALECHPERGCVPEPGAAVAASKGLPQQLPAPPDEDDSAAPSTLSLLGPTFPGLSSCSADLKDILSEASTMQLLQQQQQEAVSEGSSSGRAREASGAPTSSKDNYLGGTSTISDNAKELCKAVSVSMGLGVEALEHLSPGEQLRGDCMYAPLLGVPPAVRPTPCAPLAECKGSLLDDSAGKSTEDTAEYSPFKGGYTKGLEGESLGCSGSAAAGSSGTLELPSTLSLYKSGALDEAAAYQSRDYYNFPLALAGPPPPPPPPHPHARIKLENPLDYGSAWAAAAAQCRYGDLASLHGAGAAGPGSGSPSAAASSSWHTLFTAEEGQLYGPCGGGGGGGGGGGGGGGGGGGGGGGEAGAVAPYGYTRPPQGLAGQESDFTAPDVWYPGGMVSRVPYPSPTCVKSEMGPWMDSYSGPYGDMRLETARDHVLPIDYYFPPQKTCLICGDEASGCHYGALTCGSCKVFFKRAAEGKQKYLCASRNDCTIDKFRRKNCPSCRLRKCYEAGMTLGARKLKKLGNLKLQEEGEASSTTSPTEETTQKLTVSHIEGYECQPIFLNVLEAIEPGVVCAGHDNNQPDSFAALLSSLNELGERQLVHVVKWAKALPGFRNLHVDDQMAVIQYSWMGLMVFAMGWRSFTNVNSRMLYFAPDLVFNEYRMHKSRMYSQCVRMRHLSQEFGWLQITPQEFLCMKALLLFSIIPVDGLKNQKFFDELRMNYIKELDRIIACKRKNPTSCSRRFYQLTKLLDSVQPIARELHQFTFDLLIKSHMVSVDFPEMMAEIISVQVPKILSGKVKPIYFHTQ
Protocol: Fractions of cell cytosol ([…]) were incubated for 24 hr at 4° C. with 1 nM [^3H]methyltrienolone in the absence or presence of the test compound in a buffer containing 25 mM Hepes-Tris (pH 7.4), 1 mM EDTA, 10 mM Na2MoO4, 2 mM DTT, 5 μM triamcinolone acetonide, and 10% glycerol. Nonspecific binding was determined in the presence of […] testosterone. Following incubation, the samples were filtered rapidly under vacuum through glass fiber filters (GF/B, Packard) presoaked with 0.3% PEI and rinsed several times with ice-cold 50 mM Tris-HCl using a 96-sample cell harvester (Unifilter, Packard). The filters were dried then counted for radioactivity in a scintillation counter (Topcount, Packard) using a scintillation cocktail (Microscint 0, Packard). The results are expressed as a percent inhibition of the control radioligand specific binding. The standard reference compound is testosterone, which is tested in each experiment at several concentrations to obtain a competition curve from which its IC50 is calculated.

[2] = test system: T-Rex 293 cell line SC cells lacking increased expression of progesterone receptor isoform B protein; assay: Cellular growth inhibition assay, T-Rex 293 SC cells not exposed to doxycycline (no increased progesterone receptor isoform B expression), CellTiter-Glo; type: cell-based; details: T-Rex 293 SC cells without doxycycline (no increased PR isoform B), 72 hours
[3] = test system: T-Rex 293 cell line SC cells having increased expression of progesterone receptor isoform B protein; assay: Cellular growth inhibition assay, T-Rex 293 SC cells exposed to doxycycline (increased progesterone receptor isoform B expression), CellTiter-Glo; type: cell-based; details: T-Rex 293 SC cells with 10 ng/mL doxycycline (increased PR isoform B), 72 hours

| pKi [1] | SMILES | GI50 [2] [nM] | GI50 [3] [nM] |
| --- | --- | --- | --- |
| > 7.30 | CCS(=O)(=O)Nc1ccc(Oc2cccc(COC3CCN(c4ncc(C(=O)N[C@H]5C(C)(C)[C@H](Oc6ccc(C#N)c(Cl)c6)C5(C)C)cn4)CC3)c2)c(-c2cn(C)c(=O)c3[nH]ccc23)c1 [Compound I-18, N-((1r, 3r)-3-(3-chloro-4-cyanophenoxy)-2,2,4,4-tetramethylcyclobutyl)-2-(4-((3-(4-(ethylsulfonamido)-2-(6-methyl-7-oxo-6,7-dihydro-1H-pyrrolo[2,3-c]pyridin-4-yl)phenoxy)benzyl)oxy)piperidin-1-yl)pyrimidine-5-carboxamide] | < 500 | < 500 |
| > 7.30 | CCS(=O)(=O)Nc1ccc(Oc2cccc(OCCOC3CCN(c4ccc(C(=O)N[C@H]5C(C)(C)[C@H](Oc6ccc(C#N)c(Cl)c6)C5(C)C)cn4)CC3)c2)c(-c2cn(C)c(=O)c3[nH]ccc23)c1 [Compound I-70, N-((1r, 3r)-3-(3-chloro-4-cyanophenoxy)-2,2,4,4-tetramethylcyclobutyl)-6-(4-(2-(3-(4-(ethylsulfonamido)-2-(6-methyl-7-oxo-6,7-dihydro-1H-pyrrolo[2,3-c]pyridin-4-yl)phenoxy)phenoxy)ethoxy)piperidin-1-yl)nicotinamide] | < 500 | < 500 |
| 5.60 to 6.30 | CCS(=O)(=O)Nc1ccc(Oc2cccc(OCCOC3CCN(c4cnc(C(=O)N[C@H]5C(C)(C)[C@H](Oc6ccc(C#N)c(Cl)c6)C5(C)C)cn4)CC3)c2)c(-c2cn(C)c(=O)c3[nH]ccc23)c1 [Compound I-71, N-((1r, 3r)-3-(3-chloro-4-cyanophenoxy)-2,2,4,4-tetramethylcyclobutyl)-5-(4-(2-(3-(4-(ethylsulfonamido)-2-(6-methyl-7-oxo-6,7-dihydro-1H-pyrrolo[2,3-c]pyridin-4-yl)phenoxy)phenoxy)ethoxy)piperidin-1-yl)pyrazine-2-carboxamide] | < 500 | < 500 |
| > 7.30 | CCS(=O)(=O)Nc1ccc(Oc2ccc(OCC3CCN(c4ncc(C(=O)N[C@H]5C(C)(C)[C@H](Oc6ccc(C#N)c(Cl)c6)C5(C)C)cn4)CC3)cc2)c(-c2cn(C)c(=O)c3[nH]ccc23)c1 [Compound I-138] | < 500 | < 500 |
| 6.30 to 7.30 | Cn1cc(-c2cc(C(C)(C)O)ccc2Oc2ccc(CCC3CCN(c4ncc(C(=O)N[C@H]5C(C)(C)[C@H](Oc6ccc(C#N)c(Cl)c6)C5(C)C)cn4)CC3)cc2)c2cc[nH]c2c1=O [Compound I-203] | > 3000 | < 500 |
| > 7.30 | Cn1cc(-c2cc(C(C)(C)O)ccc2Oc2ccc(N3CC(CC4CCN(c5ncc(C(=O)N[C@H]6C(C)(C)[C@H](Oc7ccc(C#N)c(Cl)c7)C6(C)C)cn5)CC4)C3)cc2)c2cc[nH]c2c1=O [Compound I-232] | 500 to 1500 | < 500 |
